Results taken from patent US7101868B2, “Substituted arylamine derivatives and methods of use” (Amgen Inc., priority 2001, dated 2006).

Test system: VEGF-stimulated HUVEC proliferation (Human Umbilical Vein Endothelial cells)
Assay: HUVEC Proliferation Assay
Type: cell-based
Conditions: VEGF 50 ng/mL final, 72 h incubation, CyQuant fluorescent dye, read-out: inhibited VEGF-stimulated HUVEC proliferation at a level (IC50)
Experimental: Human Umbilical Vein Endothelial cells are purchased from Clonetics, Inc., as cryopreserved cells harvested from a pool of donors. These cells, at passage 1, are thawed and expanded in EBM-2 complete medium, until passage 2 or 3. The cells are trypsinized, washed in DMEM+10% FBS+antibiotics, and spun at 1000 rpm for 10 min. Prior to centrifugation of the cells, a small amount is collected for a cell count. After centrifugation, the medium is discarded, and the cells are resuspended in the appropriate volume of DMEM+10% FBS+antibiotics to achieve a concentration of 3×10^5 cells/mL. Another cell count is performed to confirm the cell concentration. The cells are diluted to 3×10^4 cells/mL in DMEM+10% FBS+antibiotics, and 100 μL of cells are added to a 96-well plate. The cells are incubated at 37° C. for 22 h.
Prior to the completion of the incubation period, compound dilutions are prepared. Five-point, five-fold serial dilutions are prepared in DMSO, at concentrations 400-fold greater than the final concentrations desired. 2.5 μL of each compound dilution are diluted further in a total of 1 mL DMEM+10% FBS+antibiotics (400× dilution). Medium containing 0.25% DMSO is also prepared for the 0 μM compound sample. At the 22-hour timepoint, the medium is removed from the cells, and 100 μL of each compound dilution is added. The cells are incubated at 37° C. for 2-3 h.
During the compound pre-incubation period, the growth factors are diluted to the appropriate concentrations. Solutions of DMEM+10% FBS+antibiotics, containing either VEGF or bFGF at the following concentrations: 50, 10, 2, 0.4, 0.08, and 0 ng/mL are prepared. For the compound-treated cells, solutions of VEGF at 550 ng/mL or bFGF at 220 ng/mL for 50 ng/mL or 20 ng/mL final concentrations, respectively, are prepared since 10 μL of each will be added to the cells (110 μL final volume). At the appropriate time after adding the compounds, the growth factors are added. VEGF is added to one set of plates, while bFGF is added to another set of plates. For the growth factor control curves, the media on wells B4-G6 of plates 1 and 2 are replaced with media containing VEGF or bFGF at the varying concentrations (50-0 ng/mL). The cells are incubated at 37° C. for an additional 72 h.
At the completion of the 72 h incubation period, the medium is removed, and the cells are washed twice with PBS. After the second wash with PBS, the plates are tapped gently to remove excess PBS, and the cells are placed at −70° C. for at least 30 min. The cells are thawed and analyzed using the CyQuant fluorescent dye (Molecular Probes C-7026), following the manufacturer's recommendations. The plates are read on a Victor/Wallac 1420 workstation at 485 nm/530 nm (excitation/emission). Raw data are collected and analyzed using a 4-parameter fit equation in XLFit. IC50 values are then determined.

**Q.** How did the IC50 turn out when `O=C(Nc1cccc(C(F)(F)F)c1)c1cccnc1NCc1ccc(Br)cc1` [Example 25, (2-{[(4-Bromophenyl)methyl]amino}(3-pyridyl))-N-[3-(trifluoromethyl)phenyl]carboxamide] was run?
**A.** Its IC50 is less than 50 nM.

**Q.** `O=C(Nc1cccc(C(F)(F)F)c1)c1cccnc1NCc1ccc(F)c(F)c1` [Example 29, (2-{[(3,4-Difluorophenyl)methyl]amino}(3-pyridyl))-N-[3-(trifluoromethyl)phenyl]carboxamide] was tested. Which IC50 did it give?
**A.** The IC50 was less than 50 nM.

**Q.** With `O=C(Nc1ccc(C(F)(F)C(F)(F)F)c(OC[C@H]2CCCN2)c1)c1cccnc1NCc1ccc(F)cc1` [Example 54, (R) 2-(4-Fluoro-benzylamino)-N-[3-(pyrrolidin-2-ylmethoxy)-4-pentafluoroethyl-phenyl]-nicotinamide] as the compound, how does the IC50 read?
**A.** Its IC50 is less than 50 nM.

**Q.** How did the IC50 turn out when `CC(C)(C)c1ccc(NC(=O)c2cccnc2NCc2ccc(F)cc2)cc1OC[C@H]1CCCN1` [Example 57, (R) N-[4-tert-Butyl-3-(pyrrolidin-2-ylmethoxy)-phenyl]-2-(4-fluoro-benzylamino)-nicotinamide] was run?
**A.** Its IC50 is less than 50 nM.

**Q.** `CN1CC=C(c2cc(NC(=O)c3cccnc3NCc3ccc(F)cc3)ccc2C(C)(C)C)CC1` [Example 39] was tested. Which IC50 did it give?
**A.** Its IC50 is less than 50 nM.

**Q.** `CN1CCC(C(C)(C)c2ccc(NC(=O)c3cccnc3NCc3ccc(F)cc3)cc2)CC1` [Example 65, 2-(4-Fluoro-benzylamino)-N-{4-[1-methyl-1-(1-methyl-piperidin-4-yl)-ethyl]-phenyl}-nicotinamide] was tested. Which IC50 did it give?
**A.** Its IC50 is less than 50 nM.

**Q.** With `CN1CCC(N2CC(C)(C)c3ccc(NC(=O)c4cccnc4NCc4ccc(F)cc4)cc32)CC1` [Example 45, N-[3,3-Dimethyl-1-(1-methyl-piperidin-4-yl)-2,3-dihydro-1H-indol-6-yl]-2-(4-fluoro-benzylamino)-nicotinamide] as the compound, how does the IC50 read?
**A.** The IC50 was less than 50 nM.

**Q.** For `CC(=O)N1CC(C)(C)Oc2ccc(NC(=O)c3cccnc3NCc3ccc(F)cc3)cc21` [Example 52, N-(4-Acetyl-2,2-dimethyl-3,4-dihydro-2H-benzo[1,4]oxazin-6-yl)-2-(4-fluoro-benzylamino)-nicotinamide], which IC50 is on record?
**A.** Its IC50 is less than 50 nM.

**Q.** With `CC(C)(C)c1ccc(NC(=O)c2cccnc2NCc2ccc(F)cc2)cc1OCC1CCNCC1` [Example 56, N-[4-tert-Butyl-3-(piperidin-4-ylmethoxy)-phenyl]-2-(4-fluoro-benzylamino)-nicotinamide] as the compound, how does the IC50 read?
**A.** Its IC50 is less than 50 nM.

**Q.** Which IC50 does the source give for `CC1(C)CN(C(=O)CN)c2cc(NC(=O)c3cccnc3NCc3ccc(F)cc3)ccc21` [Example 59, N-[1-(2-Amino-acetyl)-3,3-dimethyl-2,3-dihydro-1H-indol-6-yl]-2-(4-fluoro-benzylamino)-nicotinamide] here?
**A.** Its IC50 is less than 50 nM.

**Q.** `CN(C)CC(=O)N1CC(C)(C)c2ccc(NC(=O)c3cccnc3NCc3ccc(F)cc3)cc21` [Example 46, N-[1-(2-Dimethylamino-acetyl)-3,3-dimethyl-2,3-dihydro-1H-indol-6-yl]-2-(4-fluoro-benzylamino)-nicotinamide] was tested. Which IC50 did it give?
**A.** The IC50 was less than 50 nM.

**Q.** How did the IC50 turn out when `O=C(Nc1cc(OC[C@H]2CCCN2)cc(C(F)(F)F)c1)c1cccnc1NCc1ccc(F)cc1` [Example 55, (R) 2-(4-Fluoro-benzylamino)-N-[3-(pyrrolidin-2-ylmethoxy)-5-trifluoromethyl-phenyl]-nicotinamide] was run?
**A.** Its IC50 is less than 50 nM.

**Q.** With `CC1(C)CN(C2CCNCC2)c2cc(NC(=O)c3cccnc3NCc3ccc(F)cc3)ccc21` [Example 60, N-(3,3-Dimethyl-1-piperidin-4-yl-2,3-dihydro-1H-indol-6-yl)-2-(4-fluoro-benzylamino)-nicotinamide] as the compound, how does the IC50 read?
**A.** The IC50 was less than 50 nM.

**Q.** For `O=C(Nc1ccc(C(F)(F)F)c(OCCN2CCCC2)c1)c1cccnc1NCc1ccc(F)cc1` [Example 42, 2-(4-Fluoro-benzylamino)-N-[3-(2-pyrrolidin-1-yl-ethoxy)-4-trifluoromethyl-phenyl]-nicotinamide], which IC50 is on record?
**A.** The IC50 was less than 50 nM.

**Q.** Which IC50 does the source give for `CC1(C)CNCc2cc(NC(=O)c3cccnc3NCc3ccc(F)cc3)ccc21` [Example 58, N-(4,4-Dimethyl-1,2,3,4-tetrahydro-isoquinolin-7-yl)-2-(4-fluoro-benzylamino)-nicotinamide] here?
**A.** Its IC50 is less than 50 nM.

**Q.** Which IC50 does the source give for `O=C(Nc1cccc(C(F)(F)F)c1)c1cccnc1NCc1ccc(F)c(C#CCN2CCOCC2)c1` [Example 40, [2-({[4-Fluoro-3-(3-morpholin-4-ylprop-1-ynyl)phenyl]methyl}amino)(3-pyridyl)]-N-[3-(trifluoromethyl)phenyl]carboxamide] here?
**A.** Its IC50 is less than 50 nM.

**Q.** For `O=C(Nc1cccc(C(F)(F)F)c1)c1cccnc1NCc1ccc(Cl)cc1` [Example 26, (2-{[(4-Chlorophenyl)methyl]amino}(3-pyridyl))-N-[3-(trifluoromethyl)phenyl]carboxamide], which IC50 is on record?
**A.** Its IC50 is less than 50 nM.

**Q.** With `O=C(Nc1ccc(C(F)(F)F)cc1)c1cccnc1NCc1ccc(F)cc1` [Example 34, (2-{[(4-Fluorophenyl)methyl]amino}(3-pyridyl))-N-(4-(trifluoromethyl)phenyl]carboxamide] as the compound, how does the IC50 read?
**A.** Its IC50 is less than 50 nM.

**Q.** For `CN1CCC[C@H]1COc1cc(NC(=O)c2cccnc2NCc2ccc(F)cc2)cc(C(F)(F)F)c1` [Example 63, (S)-2-(4-Fluoro-benzylamino)-N-[3-(1-methyl-pyrrolidin-2-ylmethoxy)-5-trifluoromethyl-phenyl]-nicotinamide], which IC50 is on record?
**A.** Its IC50 is less than 50 nM.

**Q.** How did the IC50 turn out when `CN(C)CCCc1cc(NC(=O)c2cccnc2NCc2ccc(F)cc2)cc(C(F)(F)F)c1` [Example 35, N-{3-[3-(Dimethylamino)propyl]-5-(trifluoromethyl)phenyl}(2-{[(4-fluorophenyl)methyl]amino}(3-pyridyl))carboxamide] was run?
**A.** The IC50 was less than 50 nM.

**Q.** For `CCC(C)c1ccc(NC(=O)c2cccnc2NCc2ccc(F)cc2)cc1` (centres unmarked) [Example 16, N-(4-sec-butylphenyl)-2-[(4-fluorobenzyl)amino]nicotinamide], which IC50 is on record?
**A.** The IC50 was less than 50 nM.

**Q.** With `O=C(Nc1cccc(C(F)(F)F)c1)c1cccnc1NCc1ccc(F)cc1` [Example 21, (2-{[(4-Fluorophenyl)methyl]amino}(3-pyridyl))-N-[3-(trifluoromethyl)phenyl]carboxamide] as the compound, how does the IC50 read?
**A.** Its IC50 is less than 50 nM.

**Q.** With `CN1CCC(CN2CC(C)(C)c3ccc(NC(=O)c4cccnc4NCc4ccc(F)cc4)cc32)CC1` [Example 64, N-[3,3-Dimethyl-1-(1-methyl-piperidin-4-ylmethyl)-2,3-dihydro-1H-indol-6-yl]-2-(4-fluoro-benzylamino)-nicotinamide] as the compound, how does the IC50 read?
**A.** Its IC50 is less than 50 nM.

**Q.** With `CC(C)c1ccc(NC(=O)c2cccnc2NCc2ccc(F)cc2)cc1` [Example 20, (2-{[(4-Fluorophenyl)methyl]amino}(3-pyridyl))-N-[4-(methylethyl)phenyl]carboxamide] as the compound, how does the IC50 read?
**A.** The IC50 was less than 50 nM.

**Q.** `O=C(Nc1cccc(C(F)(F)F)c1)c1cccnc1NCc1ccc(F)cc1F` [Example 27, (2-{[(2,4-Difluorophenyl)methyl]amino}(3-pyridyl))-N-[3-(trifluoromethyl)phenyl]carboxamide] was tested. Which IC50 did it give?
**A.** The IC50 was less than 50 nM.

**Q.** With `CC1(C)CNc2cc(NC(=O)c3cccnc3NCc3ccc(F)cc3)ccc2O1` [Example 62, N-(2,2-Dimethyl-3,4-dihydro-2H-benzo[1,4]oxazin-6-yl)-2-(4-fluoro-benzylamino)-nicotinamide] as the compound, how does the IC50 read?
**A.** Its IC50 is less than 50 nM.

**Q.** `O=C(Nc1cc(OCC2CCNCC2)cc(C(F)(F)F)c1)c1cccnc1NCc1ccc(F)cc1` [Example 61, 2-(4-Fluoro-benzylamino)-N-[3-(piperidin-4-ylmethoxy)-5-trifluoromethyl-phenyl]-nicotinamide] was tested. Which IC50 did it give?
**A.** The IC50 was less than 50 nM.

**Q.** `CC(C)(C)c1ccc(NC(=O)c2cccnc2NCc2ccc(F)cc2)cc1` [Example 17, N-(4-tert-Butylphenyl)-2-[(4-fluorobenzyl)amino]nicotinamide] was tested. Which IC50 did it give?
**A.** The IC50 was less than 50 nM.

**Q.** With `O=C(Nc1ccc(Oc2ccccc2)cc1)c1cccnc1NCc1ccc2c(c1)OCO2` [Example 41, {2-[(2H-Benzo[d]1,3-dioxol-5-ylmethyl)amino](3-pyridyl)}-N-(4-phenoxyphenyl)carboxamide] as the compound, how does the IC50 read?
**A.** Its IC50 is less than 50 nM.
